Where two headings read alike, the source gives them in different places.
Assays:
HT-29 = test: Inhibition of cells growth by colorimetric (SRB) assay, HT-29; conditions: for GI50 / CC50: Homo sapiens, HT-29, 48 h
Excerpt: (§1) The finality of these assays is to interrupt the growth of a “in vitro” tumor cell culture by means a continued exhibition of the cells to the sample to be testing.
(§2) This form of the assay employs 96 well cell culture microplates of 9 mm diameter (Faircloth, 1988; Mosmann, 1983). Most of the cell lines are obtained from American Type Culture Collection (ATCC) derived from different human cancer types.
(§3) Cells are maintained in RPMI 1640 10% FBS, supplemented with 0.1 g/l penicillin and 0.1 g/l streptomycin sulphate and then incubated at 37° C., 5% CO2 and 98% humidity. For the experiments, cells were harvested from subconfluent cultures using trypsin and resuspended in fresh medium before plating.
(§4) Cells are seeded in 96 well microtiter plates, at 5×10^3 cells per well in aliquots of 195 μl medium, and they are allowed to attach to the plate surface by growing in drug free medium for 18 hours. Afterward, samples are added in aliquots of 5 μl in a ranging from 10 to 10^−8 μg/ml, dissolved in DMSO/EtOH/PBS (0.5:0.5:99). After 48 hours exposure, the antitumor effect are measured by the SRB methodology: cells are fixed by adding 50 μl of cold 50% (wt/vol) trichloroacetic acid (TCA) and incubating for 60 minutes at 4° C. Plates are washed with deionized water and dried. One hundred μl of SRB solution (0.4% wt/vol in 1% acetic acid) is added to each microtiter well and incubated for 10 minutes at room temperature. Unbound SRB is removed by washing with 1% acetic acid. Plates are air dried and bound stain is solubilized with Tris buffer. Optical densities are read on a automated spectrophotometric plate reader at a single wavelength of 490 nm.
(§5) The values for mean +/−SD of data from triplicate wells are calculated. Some parameters for cellular responses can be calculated: GI=growth inhibition, TGI=total growth inhibition (cytostatic effect) and LC=cell killing (cytotoxic effect).

A-549 = test: Inhibition of cells growth by colorimetric (SRB) assay, A-549; conditions: for GI50 / CC50: Homo sapiens, A549, 48 h
Excerpt: as §1, §2, §3, §4, §5

[1] = read-out: GI50 HT-29, SRB assay, 48 hours exposure
[2] = read-out: LC50 HT-29, SRB assay, 48 hours exposure
[3] = read-out: GI50 A-549, SRB assay, 48 hours exposure
[4] = read-out: LC50 A-549, SRB assay, 48 hours exposure

Row | SMILES | GI50 (HT-29; [1]) [µM] | GI50 (A-549; [3]) [µM] | GI50 (HT-29; read-out: HT-29 GI50, SRB assay, 48 hours exposure) [µM] | GI50 (A-549; read-out: A-549 GI50, SRB assay, 48 hours exposure) [µM] | CC50 (HT-29; [2]) [µM] | TGI HT-29 (HT-29; SRB assay, 48 hours exposure) | CC50 (A-549; [4]) [µM] | TGI A-549 (A-549; SRB assay, 48 hours exposure) | CC50 (HT-29; read-out: HT-29 LC50, SRB assay, 48 hours exposure) [µM] | HT-29 TGI (HT-29; SRB assay, 48 hours exposure) | CC50 (A-549; read-out: A-549 LC50, SRB assay, 48 hours exposure) [µM] | A-549 TGI (A-549; SRB assay, 48 hours exposure)
1 | CSc1nccc(-c2c3ccc(C)nc3n3c(SC)nccc23)n1 [Compound 22] | 2.83 | 0.85 | – | – | 19.8 | 8.50E−06 | 22.7 | 2.27E−06 | – | – | – | –
2 | CSc1nccc(-c2c3cc4ccccc4nc3n3c(SC)nccc23)n1 [Compound 17a] | ≥ 25.7 | ≥ 25.7 | – | – | 129 | 7.71E−05 | 129 | 7.71E−05 | – | – | – | –
3 | CSc1nccc(-c2c3cccnc3n3c(SC)nccc23)n1 [Compound 9] | 9.16 | 5.9 | – | – | 25.7 | 2.57E−05 | 29.5 | 1.18E−05 | – | – | – | –

Now from value to compound, other results behind:

Row | GI50 (HT-29; [1]) [µM] | GI50 (A-549; [3]) [µM] | GI50 (HT-29; read-out: HT-29 GI50, SRB assay, 48 hours exposure) [µM] | GI50 (A-549; read-out: A-549 GI50, SRB assay, 48 hours exposure) [µM] | SMILES | CC50 (HT-29; [2]) [µM] | TGI HT-29 (HT-29; SRB assay, 48 hours exposure) | CC50 (A-549; [4]) [µM] | TGI A-549 (A-549; SRB assay, 48 hours exposure) | CC50 (HT-29; read-out: HT-29 LC50, SRB assay, 48 hours exposure) [µM] | HT-29 TGI (HT-29; SRB assay, 48 hours exposure) | CC50 (A-549; read-out: A-549 LC50, SRB assay, 48 hours exposure) [µM] | A-549 TGI (A-549; SRB assay, 48 hours exposure)
4 | 1.22 | 5.35 | – | – | COC(=O)C(C(=O)OC)c1nccc(-c2c3cccnc3n3c(N)nccc23)n1 [Compound 74] | 25.5 | 2.55E−05 | 21.3 | 1.07E−05 | – | – | – | –
5 | 21.1 | 21.1 | – | – | Nc1nccc2c(-c3ccnc(OCc4ccccc4)n3)c3c(OCc4ccccc4)ccnc3n12 [Compound 104] | 21.1 | 2.11E−05 | 21.1 | 2.11E−05 | – | – | – | –
6 | – | – | 25.1 | 25.1 | COc1ccc(COc2nccc(-c3c4cccnc4n4c(N)nccc34)n2)cc1 [Compound 79] | – | – | – | – | 25.1 | 2.51E−05 | 25.1 | 2.51E−05
7 | 11.9 | 11.5 | – | – | CCOc1nccc(-c2c3c(OCc4ccccc4)ccnc3n3c(N)nccc23)n1 [Compound 103] | 24.2 | 2.42E−05 | 24.2 | 2.42E−05 | – | – | – | –
8 | 0.974 | 0.649 | – | – | CSc1nccc(-c2c3cccnc3n3c(N)nccc23)n1 [Compound 25] | ≥ 162 | 9.74E−07 | ≥ 162 | 3.25E−07 | – | – | – | –
